# Results published in ChEMBL document CHEMBL1130974, “High affinity phenylglycinol-based NK1 receptor antagonists” (Bioorg Med Chem Lett, 1998).
# Legend:
# [1] = target: Substance-P receptor (Homo sapiens, UniProt P25103); assay: Affinity towards hNK1 receptor by displacement of [125I]- Substance P from hNK1 receptor expressed in CHO cells; type: cell-based
# [2] = Tmax was determined; type: ADME, organism-based; settings: rat, in vivo
# [3] = Steady state volume of distribution dosing at 3 mg/kg iv; type: ADME, organism-based; parameters: dose 3 mg/kg, route intravenous; settings: rat, in vivo
# [4] = Maximal plasma drug concentration was determined; type: ADME, organism-based; settings: rat
# [5] = Oral bioavailability; type: ADME, organism-based; settings: rat, in vivo
# [6] = target: T1, Substance-K receptor (Homo sapiens, UniProt P21452); assay: Binding affinity for Tachykinin receptor 2
# T1 sequence (P21452 whole entry): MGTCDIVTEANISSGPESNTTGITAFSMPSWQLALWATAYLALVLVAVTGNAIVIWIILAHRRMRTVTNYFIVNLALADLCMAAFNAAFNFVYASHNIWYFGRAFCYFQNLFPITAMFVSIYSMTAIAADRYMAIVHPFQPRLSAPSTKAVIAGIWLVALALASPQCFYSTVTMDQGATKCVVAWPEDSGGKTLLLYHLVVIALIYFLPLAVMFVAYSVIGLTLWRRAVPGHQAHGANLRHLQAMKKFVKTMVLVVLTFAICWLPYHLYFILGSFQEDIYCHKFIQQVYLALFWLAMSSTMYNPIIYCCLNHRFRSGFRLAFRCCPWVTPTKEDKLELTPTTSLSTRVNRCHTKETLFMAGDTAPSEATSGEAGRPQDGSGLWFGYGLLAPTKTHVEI
# [7] = target: T2, Neuromedin-K receptor (Homo sapiens, UniProt P29371); assay: Binding affinity for Tachykinin receptor 3
# T2 sequence (P29371 whole entry): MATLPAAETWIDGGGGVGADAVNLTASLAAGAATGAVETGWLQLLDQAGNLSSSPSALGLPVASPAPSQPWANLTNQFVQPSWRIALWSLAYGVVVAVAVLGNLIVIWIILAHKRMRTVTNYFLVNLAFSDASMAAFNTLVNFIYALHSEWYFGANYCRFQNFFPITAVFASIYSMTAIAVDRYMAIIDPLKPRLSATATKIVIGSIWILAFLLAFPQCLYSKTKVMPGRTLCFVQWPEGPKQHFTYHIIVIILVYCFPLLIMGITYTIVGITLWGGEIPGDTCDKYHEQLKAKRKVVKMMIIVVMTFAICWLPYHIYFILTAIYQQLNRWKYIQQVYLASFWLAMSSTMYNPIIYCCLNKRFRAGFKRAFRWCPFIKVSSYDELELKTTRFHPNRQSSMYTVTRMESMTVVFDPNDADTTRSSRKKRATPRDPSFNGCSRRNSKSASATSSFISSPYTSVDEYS
# [8] = Plasma elimination half-life was determined; type: ADME, organism-based; settings: rat
# [9] = Low affinity binding to calcium channel
# Chain of Substance-P receptor (P25103 whole entry): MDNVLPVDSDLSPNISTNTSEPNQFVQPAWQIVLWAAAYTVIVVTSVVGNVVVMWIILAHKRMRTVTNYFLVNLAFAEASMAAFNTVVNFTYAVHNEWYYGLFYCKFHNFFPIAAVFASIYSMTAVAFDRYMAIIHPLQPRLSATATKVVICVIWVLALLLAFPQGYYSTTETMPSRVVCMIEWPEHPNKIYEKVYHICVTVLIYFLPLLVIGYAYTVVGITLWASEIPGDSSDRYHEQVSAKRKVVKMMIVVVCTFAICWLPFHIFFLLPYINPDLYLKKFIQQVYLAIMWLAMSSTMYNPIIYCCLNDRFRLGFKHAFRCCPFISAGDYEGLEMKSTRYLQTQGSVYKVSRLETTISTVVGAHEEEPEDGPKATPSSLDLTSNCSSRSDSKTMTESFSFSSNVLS
Structure (SMILES),IC50 [1],also measured
O=c1[nH]nc(CN[C@H](COCc2cc(C(F)(F)F)cc(C(F)(F)F)c2)c2ccccc2)[nH]1,0.0024 µM,–
CN(Cc1nn[nH]n1)[C@H](COCc1cc(C(F)(F)F)cc(C(F)(F)F)c1)c1ccccc1,0.07 µM,–
CN(Cc1n[nH]c(O)n1)[C@H](COCc1cc(Cl)cc(Cl)c1)c1ccccc1,0.0015 µM,–
CN(Cc1nc[nH]n1)[C@H](COCc1cc(C(F)(F)F)cc(C(F)(F)F)c1)c1ccccc1,0.0014 µM,–
CN(Cc1nnn(C)n1)[C@H](COCc1cc(C(F)(F)F)cc(C(F)(F)F)c1)c1ccccc1,0.016 µM,–
FC(F)(F)c1cc(COC[C@@H](NCc2nn[nH]n2)c2ccccc2)cc(C(F)(F)F)c1,0.023 µM,–
Cc1cc(Cl)cc(COC[C@H](c2ccccc2)N(C)Cc2n[nH]c(O)n2)c1,0.0022 µM,–
FC(F)(F)c1cc(COC[C@@H](NCc2nnc[nH]2)c2ccccc2)cc(C(F)(F)F)c1,0.005 µM,–

# Continued, in another order:
IC50 [1],Structure (SMILES),also measured
0.00042 µM,Cc1cc(COC[C@H](c2ccccc2)N(C)Cc2n[nH]c(=O)[nH]2)cc(C(C)(C)C)c1,–
0.0008 µM,CCN(Cc1n[nH]c(O)n1)[C@H](COCc1cc(C(F)(F)F)cc(C(F)(F)F)c1)c1ccccc1,–
0.015 µM,Cn1nnc(CN[C@H](COCc2cc(C(F)(F)F)cc(C(F)(F)F)c2)c2ccccc2)n1,–
0.002 µM,CCCN(Cc1n[nH]c(O)n1)[C@H](COCc1cc(C(F)(F)F)cc(C(F)(F)F)c1)c1ccccc1,–
0.00043 µM,CN(Cc1n[nH]c(O)n1)[C@H](COCc1cc(C(F)(F)F)cc(C(F)(F)F)c1)c1ccccc1,Tmax [2]: 30 min; Vd [3]: 3.5 L/kg; Cmax [4]: 97 ng/mL; bioavailability [5]: 16%; IC50 [6]: > 1 µM; IC50 [7]: > 1 µM; half-life [8]: 48 min; IC50 [9]: > 1000 µM
0.01 µM,Cn1nnnc1CN[C@H](COCc1cc(C(F)(F)F)cc(C(F)(F)F)c1)c1ccccc1,–
0.013 µM,CN(Cc1nnnn1C)[C@H](COCc1cc(C(F)(F)F)cc(C(F)(F)F)c1)c1ccccc1,–
